Values quoted from earlier work as cited in patent US20130079416A1 (BOIRON, priority 2010, published 2013).
Read-outs that look alike come from different tables or passages of the source.

What was measured:
[1] = human
[2] = rats, long time and very high doses, alone or in combination with phenazone (Johansson, 1981)
[3] = rat, oral, multiple doses; methemoglobinemia-carboxyhaemoglobin, changes in blood cell and erythrocyte count

SMILES: CCOc1ccc(NC(C)=O)cc1 [phenacetin, N-(4-ethoxyphenyl)acetamide]
- Lowest toxic dose (TDL0) ([1]; acute, route not indicated): 74 mg/kg
- Lowest toxic dose (TDL0) ([1]; oral, multiple doses, tumorigenic-carcinogenic according to RTECS criteria, renal tumours): 80 mg/kg/63 mg/kg/63 years (intermittent)
- Incidence of renal tumours [2]: slightly increases the incidence of renal tumours
- Lowest toxic dose (TDL0) [3]: 10 mg/kg/ mg/kg/4 weeks (intermittent)
